How the values were obtained:
[1] = system: antibodies in sera from SARS patients (sera 1a, 1b, 2, 6, 37, 62, London, SARS-yellow, SARS-green); assay type: binding, human; set-up: Binding of serum 6 to linear peptides of protein X1 of SARS-CoV Urbani / Binding of serum 37 to linear peptides of protein X1 of SARS-CoV Urbani / Binding of serum 6 to looped/cyclic peptide (PEPSCAN-ELISA) / Binding of serum 37 to looped/cyclic peptide (PEPSCAN-ELISA) / Binding of serum 37 to looped/cyclic peptides of protein X1 of SARS-CoV Urbani / Binding of serum 6 to linear peptides of protein X2 / Binding of serum 37 to linear peptides of protein X2 / Binding of serum 37 to looped/cyclic peptides of protein X2 of SARS-CoV Urbani / Binding of serum 6 to linear peptides of protein M of SARS-CoV Urbani / Binding of serum 37 to linear peptides of protein M of SARS-CoV Urbani / Binding of serum 6 to looped/cyclic peptides of protein M of SARS-CoV Urbani / Binding of serum 37 to looped/cyclic peptides of protein M of SARS-CoV Urbani / Binding of serum 6 to linear peptides of protein X3 of SARS-CoV Urbani / Binding of serum 37 to linear peptides of protein X3 of SARS-CoV Urbani / Binding of serum 37 to looped/cyclic peptides of protein X3 of SARS-CoV Urbani / Binding of serum 6 to linear peptides of protein X4 of SARS-CoV Urbani / Binding of serum 37 to linear peptides of protein X4 of SARS-CoV Urbani / Binding of serum 37 to looped/cyclic peptides of protein X4 of SARS-CoV Urbani / Binding of serum 6 to linear peptides of protein X5 of SARS-CoV Urbani / Binding of serum 37 to linear peptides of protein X5 of SARS-CoV Urbani / Binding of serum 37 to looped/cyclic peptides of protein X5 of SARS-CoV Urbani / Binding of serum 6 to linear peptides of protein N of SARS-CoV Urbani / Binding of serum 37 to linear peptides of protein N of SARS-CoV Urbani / Binding of serum 6 to linear peptide (PEPSCAN-ELISA) / Binding of serum 1a to looped/cyclic peptides of protein N of SARS-CoV Urbani / Binding of serum 1b to looped/cyclic peptides of protein N of SARS-CoV Urbani / Binding of serum 2 to looped/cyclic peptides of protein N of SARS-CoV Urbani / Binding of serum 6 to looped/cyclic peptides of protein N of SARS-CoV Urbani / Binding of serum 37 to looped/cyclic peptides of protein N of SARS-CoV Urbani / Binding of serum 62 to looped/cyclic peptides of protein N of SARS-CoV Urbani / Binding of serum London to looped/cyclic peptides of protein N of SARS-CoV Urbani / Binding of serum SARS-green to looped/cyclic peptides of protein N of SARS-CoV Urbani: unit not given here
[2] = system: control sera (pooled serum of ten healthy LUMC hospital workers; commercial negative donor pooled serum from the Dutch bloodbank); assay type: binding, human; set-up: Binding of Control serum LUMC to linear peptides / Binding of Control serum Blood-bank to linear peptides / Binding of Control serum LUMC to looped peptides / Binding of Control Serum Blood-Bank to Looped peptides / Binding of Control serum LUMC to linear peptides of the protein M of SARS-CoV Urbani / Binding of Control serum Blood-bank to linear peptides of the protein M of SARS-CoV Urbani / Binding of Control serum LUMC to looped peptides of the protein M of SARS-CoV Urbani / Binding of Control Serum Blood-Bank to Looped peptides of the protein M of SARS-CoV Urbani: unit not given here
[3] = system: rabbit serum obtained by immunizing a rabbit with the SARS-CoV strain Frankfurt 1; assay type: binding; set-up: Binding of a rabbit serum to linear peptides / Binding of a rabbit serum to looped peptides / Rabbit serum linear peptides / Rabbit serum looped peptides / Binding of a rabbit serum to linear peptides of protein N of SARS-CoV Urbani (Rabbit serum linear peptides) / Binding of a rabbit serum to looped/cyclic peptides of protein N of SARS-CoV Urbani (Rabbit serum looped peptides): unit not given here

Sequence: DSGFAAYNRYRIGNY
- Binding of serum 1a to linear peptides of protein M of SARS-CoV Urbani [1]: 0.6
- Binding of serum 1a to looped/cyclic peptides of protein M of SARS-CoV Urbani [1]: 0.8
- Binding of serum 1b to linear peptides of protein M of SARS-CoV Urbani [1]: 0.4
- Binding of serum 1b to looped/cyclic peptides of protein M of SARS-CoV Urbani [1]: 0.6
- Binding of serum 2 to linear peptides of protein M of SARS-CoV Urbani [1]: 0.4
- Binding of serum 2 to looped/cyclic peptides of protein M of SARS-CoV Urbani [1]: 0.6
- Binding of serum 6 to linear peptides of protein M of SARS-CoV Urbani [1]: 0.5
- Binding of serum 6 to looped/cyclic peptides of protein M of SARS-CoV Urbani [1]: 0.6
- Binding of serum 37 to linear peptides of protein M of SARS-CoV Urbani [1]: 0.4
- Binding of serum 37 to looped/cyclic peptides of protein M of SARS-CoV Urbani [1]: 0.7
- Binding of serum 62 to linear peptides of protein M of SARS-CoV Urbani [1]: 0.4
- Binding of serum 62 to looped/cyclic peptides of protein M of SARS-CoV Urbani [1]: 0.6
- Binding of serum London to linear peptides of protein M of SARS-CoV Urbani [1]: 0.3
- Binding of serum London to looped/cyclic peptides of protein M of SARS-CoV Urbani [1]: 0.2
- Binding of serum SARS-green to linear peptides of protein M of SARS-CoV Urbani [1]: 0.3
- Binding of serum SARS-green to looped/cyclic peptides of protein M of SARS-CoV Urbani [1]: 0.4
- Binding of serum SARS-yellow to linear peptides of protein M of SARS-CoV Urbani [1]: 0.1
- Binding of serum SARS-yellow to looped/cyclic peptides of protein M of SARS-CoV Urbani [1]: 0.8
- Binding of Control Serum Blood-Bank to Looped peptides of the protein M of SARS-CoV Urbani [2]: 0.5
- Binding of Control serum Blood-bank to linear peptides of the protein M of SARS-CoV Urbani [2]: 0.5
- Binding of Control serum LUMC to linear peptides of the protein M of SARS-CoV Urbani [2]: 0.5
- Binding of Control serum LUMC to looped peptides of the protein M of SARS-CoV Urbani [2]: 0.5
- Rabbit serum linear peptides [3]: 0.2
- Rabbit serum looped peptides [3]: 0.3

Sequence: LTLIVFTSCELYHYQ
- Binding of serum 1a to linear peptides of protein X4 of SARS-CoV Urbani [1]: 0.7
- Binding of serum 1a to looped/cyclic peptides of protein X4 of SARS-CoV Urbani [1]: 0.8
- Binding of serum 1b to linear peptides of protein X4 of SARS-CoV Urbani [1]: 0.6
- Binding of serum 1b to looped/cyclic peptides of protein X4 of SARS-CoV Urbani [1]: 0.7
- Binding of serum 2 to linear peptides of protein X4 of SARS-CoV Urbani [1]: 0.5
- Binding of serum 2 to looped/cyclic peptides of protein X4 of SARS-CoV Urbani [1]: 0.7
- Binding of serum 6 to linear peptides of protein X4 of SARS-CoV Urbani [1]: 0.5
- Binding of serum 6 to looped/cyclic peptides of protein X4 of SARS-CoV Urbani [1]: 0.5
- Binding of serum 37 to linear peptides of protein X4 of SARS-CoV Urbani [1]: 0.7
- Binding of serum 37 to looped/cyclic peptides of protein X4 of SARS-CoV Urbani [1]: 0.7
- Binding of serum 62 to linear peptides of protein X4 of SARS-CoV Urbani [1]: 0.8
- Binding of serum 62 to looped/cyclic peptides of protein X4 of SARS-CoV Urbani [1]: 0.7
- Binding of serum London to linear peptides of protein X4 of SARS-CoV Urbani [1]: 0.7
- Binding of serum London to looped/cyclic peptides of protein X4 of SARS-CoV Urbani [1]: 0.3
- Binding of serum SARS-green to linear peptides of protein X4 of SARS-CoV Urbani [1]: 0.7
- Binding of serum SARS-green to looped/cyclic peptides of protein X4 of SARS-CoV Urbani [1]: 0.4
- Binding of serum SARS-yellow to linear peptides of protein X4 of SARS-CoV Urbani [1]: 0.4
- Binding of serum SARS-yellow to looped/cyclic peptides of protein X4 of SARS-CoV Urbani [1]: 0.7
- Binding of Control Serum Blood-Bank to Looped peptides [2]: 0.7
- Binding of Control serum Blood-bank to linear peptides [2]: 0.7
- Binding of Control serum LUMC to linear peptides [2]: 0.7
- Binding of Control serum LUMC to looped peptides [2]: 0.8
- Rabbit serum linear peptides [3]: 0.5
- Rabbit serum looped peptides [3]: 0.3

Sequence: QFAYSNRNRFLYIIK
- Binding of serum 1a to linear peptides of protein M of SARS-CoV Urbani [1]: 0.7
- Binding of serum 1b to linear peptides of protein M of SARS-CoV Urbani [1]: 0.6
- Binding of serum 2 to linear peptides of protein M of SARS-CoV Urbani [1]: 0.5
- Binding of serum 37 to linear peptides of protein M of SARS-CoV Urbani [1]: 0.4
- Binding of serum 62 to linear peptides of protein M of SARS-CoV Urbani [1]: 0.9
- Binding of serum London to linear peptides of protein M of SARS-CoV Urbani [1]: 0.4
- Binding of serum SARS-green to linear peptides of protein M of SARS-CoV Urbani [1]: 0.5
- Binding of serum SARS-yellow to linear peptides of protein M of SARS-CoV Urbani [1]: 0.3
- Recognition of the peptide by sera of SARS-CoV infected individuals, and form (linear, looped/cyclic) in which it is recognized [1]: recognized in looped/cyclic form
- Binding of Control Serum Blood-Bank to Looped peptides of the protein M of SARS-CoV Urbani [2]: 0.6
- Binding of Control serum Blood-bank to linear peptides of the protein M of SARS-CoV Urbani [2]: 0.6
- Binding of Control serum LUMC to linear peptides of the protein M of SARS-CoV Urbani [2]: 0.8
- Binding of Control serum LUMC to looped peptides of the protein M of SARS-CoV Urbani [2]: 0.8
- Rabbit serum linear peptides [3]: 0.4
- Rabbit serum looped peptides [3]: 1.2

— US20070128217A1 (priority 2003, published 2007)
